For assay [1], the system named is cocaine-induced behavioral sensitization. The following applies: given in acute withdrawal period from cocaine dosing; cited from earlier work.
The subject of the next assay is METH-sensitized rats. Nature of the assay: Reversal of METH-induced behavioral sensitization by 5-HT2A/2C antagonists (motor activity after acute METH challenge). Type of assay: in vivo, rat. The following applies: ketanserin 1 mg/kg once daily M-F 3 weeks; 1 mg/kg METH challenge w/d day 30/31. From the text:
Automation of observational evaluations was accomplished using computerized small animal monitors (AccuScan Instr. Inc., Columbus, Ohio). […] One feature of drug-induced behavioral sensitization is heterogeneity of motor responses and the AccuScan monitors quantify numerous behavioral indices. This is a critical point for the motor profile is exquisitely related to METH dose, the drug history of the rat and observation time. After 3- or 31-days of withdrawal from repeated METH injections, rats were allowed to achieve baseline motor activity with a 30 min habituation period, challenged with 1 mg/kg sc METH and monitored for 90 min.
Multiple 5-HT2A/2C antagonists with differing pharmacological profiles were tested for their ability to ameliorate METH-induced behavioral sensitization when administered after sensitization has developed. […] The doses were selected based on the antagonists' ability to block 5-HT2A- and 5-HT2C-mediated activity and their pharmacokinetic profiles.

The next assay relates to ventral pallidal neurons. Nature of the assay: Electrophysiology of ventral pallidal neurons, i.v. METH dose-response in chloral hydrate-anesthetized rats. Type of assay: in vivo, rat. The method, then:
Based on the biochemical results and because the ventral pallidum contains one of the highest concentrations of 5-HT in the brain, electrophysiological evaluations of this region in rats behaviorally sensitized to METH were conducted (with a 5-day once daily treatment of 2.5 mg/kg). The acute challenge was intravenously administered METH (via a tail vein cannula) as previously used by T. C. Napier's lab ^e.g., [34] where the drug is given in a cumulative dosing fashion such that each dose, administered in 2 min-intervals, essentially doubles the previous dose. METH was tested using a range of 0.06-4.0 mg/kg in saline vehicle. […] Moreover, this approach establishes if systemic administration of METH, in doses that include those producing behavioral sensitization, are sufficient promote sensitized cellular responding and thus allows for direct comparisons of cellular responding to behavioral outcomes. After a 3-day withdrawal, the ability of intravenously administered METH or 1-(2,5-dimethoxy-4-iodophenyl)-2-aminopropane (DOI) to increase ventral pallidal cell firing was enhanced in chloral hydrate-anesthetized rats, as shown by a leftward shift in the dose-response curve with a […] and an increase in response efficacy for both agonists (FIG. 16) and this occurred without any changes in the portion of neurons showing a rate increase or decrease to the acute METH challenge.
Electrophysiological assessment of the ventral pallidum was also conducted 30 days after repeated METH. […] For each experiment, an i.v. METH dose-response curve (METH was tested using a range of 0.06-2.0 mg/kg in saline vehicle) was generated for one ventral pallidal neuron per rat at 30 days withdrawal from repeated METH. Based on the analysis of curves where there was an excitatory effect of i.v. METH on ventral pallidal neurons (171 animals), there was a diminished excitatory effect of i.v. METH in the ventral pallidum of rats that were pretreated with METH only. This is illustrated by both the curves and corresponding Emax data in FIG. 17. This decrease only at long-term withdrawal mirrors the reduction seen in pallidal pCREB only after 14, but not at 3 day withdrawal from repeated METH (see Example III).

For assay [2], the system named is cocaine seeking behaviors. The following applies: rats, cited from earlier work; for maintenance of cocaine self-administration: 0.25-1 mg/kg, cocaine 0.5 mg/kg/infusion iv.
A further assay addresses D1 (Homo sapiens, UniProt P21728). The following applies: read-out: receptor affinity (Ki) D1; cited from earlier work.
Another assay addresses 5-HT2A (Homo sapiens, UniProt P28223). The following applies: read-out: receptor affinity (Ki) 5-HT2A; cited from earlier work.
The target of another assay is T1, 5-HT1A (Homo sapiens, UniProt P08908).
T1 sequence (P08908 1-422): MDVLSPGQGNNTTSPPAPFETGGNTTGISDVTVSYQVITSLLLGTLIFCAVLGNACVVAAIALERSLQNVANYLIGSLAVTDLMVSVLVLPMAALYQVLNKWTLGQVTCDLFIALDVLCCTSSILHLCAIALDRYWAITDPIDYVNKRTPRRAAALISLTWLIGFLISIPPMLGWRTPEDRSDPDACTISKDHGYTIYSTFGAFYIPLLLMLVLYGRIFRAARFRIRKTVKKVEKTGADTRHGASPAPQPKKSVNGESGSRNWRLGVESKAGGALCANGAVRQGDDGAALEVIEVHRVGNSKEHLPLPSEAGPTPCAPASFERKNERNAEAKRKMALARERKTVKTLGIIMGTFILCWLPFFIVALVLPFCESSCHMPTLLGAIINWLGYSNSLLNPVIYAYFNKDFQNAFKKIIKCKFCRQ
As to conditions: read-out: receptor affinity (Ki) 5-HT1A; cited from earlier work.

The target in the next assay is D2 (Homo sapiens, UniProt P14416). As to conditions: read-out: receptor affinity (Ki) D2; cited from earlier work.
Another assay has as its target T2, 5-HT2C (Homo sapiens, UniProt P28335).
T2 sequence (P28335 33-458): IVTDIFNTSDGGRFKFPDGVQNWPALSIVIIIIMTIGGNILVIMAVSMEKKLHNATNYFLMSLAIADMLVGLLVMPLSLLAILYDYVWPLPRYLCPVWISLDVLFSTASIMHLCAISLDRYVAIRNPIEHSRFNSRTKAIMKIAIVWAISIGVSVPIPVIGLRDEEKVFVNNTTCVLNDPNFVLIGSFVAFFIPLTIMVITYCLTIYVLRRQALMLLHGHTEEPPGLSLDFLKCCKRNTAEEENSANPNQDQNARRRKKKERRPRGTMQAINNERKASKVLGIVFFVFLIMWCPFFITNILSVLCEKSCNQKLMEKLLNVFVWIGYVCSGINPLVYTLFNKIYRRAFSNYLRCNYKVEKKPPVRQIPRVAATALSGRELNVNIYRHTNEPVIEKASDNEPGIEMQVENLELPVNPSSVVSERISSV
The following applies: read-out: receptor affinity (Ki) 5-HT2C; cited from earlier work.

The next assay has as its system METH-conditioned rats. Nature of the assay: METH-induced conditioned place preference (CPP) with simultaneous motor sensitization. Type of assay: in vivo, rat. As to conditions: single home cage injection 0.03, 0.1 or 1.0 mg/kg SDZ SER 082 24 h before test (FIG. 13). An excerpt:
The CPP box (Accuscan, Columbus, Ohio) consists of three Plexiglas compartments, each with distinct visual and tactile cues (on one side, patterned floor with object attached and horizontally striped wall; on the opposite side, smooth floor with no object and vertically striped walls; center—uniformly white floor and walls). The center compartment can be separated from the left and right compartments by removable guillotine doors. Motor activity in three dimensional space, and time spent, in each compartment is detected by two sets of photobeams set at different heights from the floor. Drug conditioning is performed by administering METH to the rat while it is in one compartment, and on the alternating day, saline is administered while the rat is confined to the opposite compartment. Confinement was achieved by blocking access to other compartments using the guillotine door. The center compartment is not seen by the rat during conditioning, and all conditioning sessions last for 45 min.
The inventors have determined that the number of METH-pairings, and the dose of METH, dictate the strength of the drug-environment association (i.e., the magnitude of salience attribution). The test for CPP is determined in a METH-free state (i.e., at least 48 hr after that last METH pairing), at which time the rats are placed in the center compartment and allowed free access to all compartments for 30 min, and the time spent in each compartment is the index of preference. The inventors have determined that the number of METH-pairings, and the dose of METH, dictate the strength of the drug-environment association (i.e., the magnitude of salience attribution) and thus the amount of time spent in the compartment previously paired with METH (FIG. 7), as well as persistence of this effect (i.e., how long it lasts; FIG. 8A). METH-induced motor sensitization can be assessed in several ways, including assessing the capacity of the rat to express an enhanced motor response to an acute METH challenge (FIGS. 9 & 10A).
To efficiently apply this approach to testing of 5-HT2A/2C antagonists, we determined that single pairing protocols of the CPP paradigm can be used to predict efficacy outcomes of 5-HT2A/2C antagonists in long-term tests on these drugs evaluating their capacity to nullify the persistent enhanced salience induced by METH. […] Thus, these protocols should help predict the capacity of novel therapeutic targets to halt a common problem of drug relapse, i.e., the ability of re-exposure to drugs like METH to immediately reinstate their abuse.

The next assay concerns the target T3, 5-HT3 (Homo sapiens, UniProt P46098).
T3 sequence (P46098 24-478): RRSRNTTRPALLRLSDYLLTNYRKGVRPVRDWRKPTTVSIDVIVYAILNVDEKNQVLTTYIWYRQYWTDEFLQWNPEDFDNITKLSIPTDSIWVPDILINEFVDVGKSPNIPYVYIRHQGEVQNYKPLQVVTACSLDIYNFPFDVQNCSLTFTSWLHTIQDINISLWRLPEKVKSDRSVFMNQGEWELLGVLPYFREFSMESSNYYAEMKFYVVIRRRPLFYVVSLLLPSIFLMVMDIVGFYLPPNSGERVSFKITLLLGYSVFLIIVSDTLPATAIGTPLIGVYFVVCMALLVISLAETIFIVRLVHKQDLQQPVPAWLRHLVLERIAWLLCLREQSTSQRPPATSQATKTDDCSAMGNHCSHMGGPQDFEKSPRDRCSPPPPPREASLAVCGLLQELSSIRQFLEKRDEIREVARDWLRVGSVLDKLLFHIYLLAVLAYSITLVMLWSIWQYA
As to conditions: read-out: receptor affinity (Ki) 5-HT3; cited from earlier work.

In another assay the target is a. The following applies: read-out: receptor affinity (Ki) a; cited from earlier work.

Structures are written as SMILES.

The source of these data is patent US20060035889A1, “Treatment for methamphetamine addiction and reduction of methamphetamine use using serotonin antagonists” (priority 2004, published 2006).

Chain of D1 (P21728 whole entry): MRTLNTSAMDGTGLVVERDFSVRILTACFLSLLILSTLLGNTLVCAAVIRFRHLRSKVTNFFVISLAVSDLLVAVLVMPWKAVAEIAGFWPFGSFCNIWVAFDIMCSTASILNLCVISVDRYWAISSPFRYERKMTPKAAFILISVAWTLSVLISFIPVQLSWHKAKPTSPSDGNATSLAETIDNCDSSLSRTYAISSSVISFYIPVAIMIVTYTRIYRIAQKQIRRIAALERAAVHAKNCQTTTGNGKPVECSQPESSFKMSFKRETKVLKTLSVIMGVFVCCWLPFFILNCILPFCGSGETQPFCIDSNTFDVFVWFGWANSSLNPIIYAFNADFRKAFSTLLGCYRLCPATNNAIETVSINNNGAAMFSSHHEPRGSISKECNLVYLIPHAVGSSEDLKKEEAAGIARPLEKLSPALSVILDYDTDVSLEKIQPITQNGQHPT
Chain of 5-HT2A (P28223 whole entry, species assumed): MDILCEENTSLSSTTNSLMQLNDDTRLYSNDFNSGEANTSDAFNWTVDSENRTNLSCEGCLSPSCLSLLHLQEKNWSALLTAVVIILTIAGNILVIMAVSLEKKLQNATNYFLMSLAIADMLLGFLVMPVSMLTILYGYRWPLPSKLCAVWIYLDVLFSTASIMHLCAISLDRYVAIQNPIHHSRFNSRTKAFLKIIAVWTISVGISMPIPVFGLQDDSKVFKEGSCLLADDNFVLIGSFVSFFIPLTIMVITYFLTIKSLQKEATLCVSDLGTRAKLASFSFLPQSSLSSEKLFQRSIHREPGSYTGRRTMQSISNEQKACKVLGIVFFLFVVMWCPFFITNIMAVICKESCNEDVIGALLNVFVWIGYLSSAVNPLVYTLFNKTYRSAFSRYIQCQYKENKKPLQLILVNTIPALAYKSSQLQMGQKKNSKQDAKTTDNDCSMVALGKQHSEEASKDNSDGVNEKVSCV
Chain of D2 (P14416 whole entry): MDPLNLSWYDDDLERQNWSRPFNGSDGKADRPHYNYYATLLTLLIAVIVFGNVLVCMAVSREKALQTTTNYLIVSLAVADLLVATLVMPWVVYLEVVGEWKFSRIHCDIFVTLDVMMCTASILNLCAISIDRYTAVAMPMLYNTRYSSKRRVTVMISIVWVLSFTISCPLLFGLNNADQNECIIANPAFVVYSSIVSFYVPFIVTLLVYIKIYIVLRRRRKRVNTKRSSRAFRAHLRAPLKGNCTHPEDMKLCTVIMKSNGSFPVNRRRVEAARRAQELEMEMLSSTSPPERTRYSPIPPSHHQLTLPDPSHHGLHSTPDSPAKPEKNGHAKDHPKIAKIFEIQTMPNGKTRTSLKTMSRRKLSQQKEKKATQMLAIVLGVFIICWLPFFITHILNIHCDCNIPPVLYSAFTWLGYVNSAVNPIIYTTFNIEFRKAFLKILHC

`CN1CCN2c3ccccc3Cc3ccccc3C2C1` (stereo not drawn) [mianserin]: the “established behavioral sensitization to cocaine” value in assay [1] was “reverse the established behavioral sensitization”.

Turning to `O=C(c1ccc(F)cc1)C1CCN(CCn2c(=O)[nH]c3ccccc3c2=O)CC1` [ketanserin], the “established behavioral sensitization to cocaine” value in [1] is recorded as “reverse the established behavioral sensitization”. For the same molecule, in the assay with METH-sensitized rats, the “effect on horizontal activity and vertical movements in METH-pretreated group” value is “appeared to potentiate the effect”; the “locomotor effects on saline-pretreated animals (acute METH challenge)” value is “did not produce any locomotor effects”. Also, the “Emax of Firing Rate Increases of Acute Meth” value with ventral pallidal neurons (METH days 1-5, then antagonist, tested 31 days after last METH) is listed as 177% ± 18% (n = 4).

What is called Ki is the dissociation constant of the complex between target and ligand, obtained from inhibition or displacement. As to `CN1CCC2CN3CCc4cccc(c43)C2C1` (stereo not drawn) [SDZ SER 082, 4,5,7a,8,9,10,11,11 a,-octahydro-7H-10-methylindolo[1,7,bc][2,6]-napthyridine], the “maintenance of cocaine self-administration” value in assay [2] is listed as “Neither SR 46349B (0.25-1 mg/kg) nor SDZ SER 082 (0.25-1 mg/kg) altered”. In addition, the “cue- and cocaine priming-induced reinstatement” value in assay [2] (cocaine priming 10 mg/kg ip or cue) is on record as “failed to alter”. The Ki on D1 was greater than 1000 nM; on 5-HT2A it was 600 nM; at 5-HT1A, 800 nM; on D2, greater than 1000 nM; at 5-HT2C, 15 nM; on 5-HT3 it was greater than 1000 nM. On a, the Ki was greater than 1000 nM. The “METH-induced CPP after single pairing of 1.0 METH” value in the assay with METH-conditioned rats is “reverses METH-induced CPP in a dose-dependent fashion”.

Turning to `CN[C@@H](C)Cc1ccccc1` [METH, Methamphetamine], in the assay with ventral pallidal neurons (repeated METH days 1-5, then vehicle, P < 0.05 vs saline + vehicle), the “Emax of Firing Rate Increases of Acute Meth” value is 161% ± 16% (n = 11).

For `CN(C)CCO/N=C(/C=C/c1ccc(O)cc1)c1ccccc1F.CN(C)CCO/N=C(/C=C/c1ccc(O)cc1)c1ccccc1F.O=C(O)/C=C/C(=O)O` [SR 46349B], in [2], the “maintenance of cocaine self-administration” value was “Neither SR 46349B (0.25-1 mg/kg) nor SDZ SER 082 (0.25-1 mg/kg) altered”.

For `Cc1nccn1CC1CCc2c(c3ccccc3n2C)C1=O` (stereo not drawn) [ondansetron], the “established behavioral sensitization to cocaine” value in [1] is “reverse the established behavioral sensitization”.
